Reference: ChEMBL document CHEMBL1129816, “Synthesis of 4-trifluoromethylsteroids: A novel class of steroid 5-reductase inhibitors” (Bioorg Med Chem Lett, 1997)

Key:
[1] = In vitro inhibitory activity against Steroid 5-alpha-reductase by using enzymic kinetics method
[2] = In vitro inhibitory activity against Steroid 5-alpha-reductase by using isotope method

Ki [1]	Ki [2]	Compound
20.2 nM	20.9 nM	CC(C)(C)NC(=O)[C@H]1CCC2C3CCC4=C(C(F)(F)F)C(=O)CC[C@]4(C)C3CC[C@@]21C (stereo partly drawn)
54.7 nM	88.2 nM	CC(C)(C)NC(=O)[C@H]1CC[C@H]2[C@@H]3CC[C@H]4NC(=O)C=C[C@]4(C)[C@H]3CC[C@]12C [FINASTERIDE]
> 1000 nM	> 1000 nM	CC(=O)[C@H]1CCC2C3CCC4=C(C(F)(F)F)C(=O)CC[C@]4(C)C3CC[C@@]21C (stereo partly drawn)

Compound	Ki [1]	Ki [2]
C[C@]12CCC(=O)C(C(F)(F)F)=C1CCC1C2CC[C@]2(C)C(=O)CCC12 (stereo partly drawn)	28.8 nM	95.2 nM
